Measured values as given in patent US4123541A, “2-Aminomethyl-5-phenyloxazoles and the pharmaceutically acceptable salts thereof” (Mitsubishi Chemical Industries Limited, priority 1976, dated 1978).
Read-outs that look alike come from different tables or passages of the source.

Columns and labels:
[1] = system: carageenin-induced rat paw inflammation; experiment: Anti-inflammatory activity: carrageenin-induced rat paw inflammation (edema), oral; type: in vivo, rats of Wistar-King strain; details: 3 hours after carrageenin, read-out: Anti-inflammatory Activity (carageenin-induced rat paw inflammation) Percent Inhibition of Swelling; for inhibition in vivo at 25 mg/kg: oral dose 25 mg/kg; for inhibition in vivo at 50 mg/kg: oral dose 50 mg/kg; for inhibition in vivo at 100 mg/kg: oral dose 100 mg/kg; for inhibition in vivo at 12.5 mg/kg: oral dose 12.5 mg/kg
Protocol: The anti-inflammatory activity of the 2-aminomethyl-5-phenyloxazoles was compared with that of aminopyrine.
Eight male rats of Wistar-King strain, each weighing between 120 to 150 grams, were used for each group. The hind paw of the rats was injected subcutaneously with 0.1 ml of 1% carrageenin suspension. The volume of the paw was measured plethysmographically 3 hours after the injection, and the difference in volume between the edematous foot and the normal foot was regarded as the degree of edema. Each percent inhibition was calculated in comparison with the control. The test compounds were administered orally 30 minutes before the injection of carrageenin.

[2] = system: AcOH induced Writhing in Mice; experiment: Analgesic activity: (A) writhing syndrome induced by acetic acid; type: in vivo, mice of ddY strain; details: Mus musculus, sc, Litchfield-Wilcoxon's method
Protocol: (A) Writhing syndrome induced by acetic acid Six male mice of ddY strain, each weighing between 25 to 30 grams were used in the present experiment. […] Thereafter, the total number of writhings of a group was recorded for 20 minutes, and percent inhibition was calculated in comparison with the control. ED50 was calculated according to Litchfield-Wilcoxon's method.

[3] = system: squeak response of mouse to electrical stimulation of the tail root; experiment: Analgesic activity: (B) electrical stimulation method; type: in vivo, mice of ddY strain; details: ip, mice, Weil's method
Protocol: The analgesic activity of the 2-aminomethyl-5-phenyloxazoles was compared with that of aminopyrine.
(B) Electrical stimulation method
Five male mice of ddY strain, each weighing between 25 to 30 grams were used for each group.
Bipolar electrode was placed on the tail root of mouse. The mouse was stimulated with a square wave (5 m sec, 1 Hz), and the minimum voltage of squeak response was measured at 5, 10, 15, 30, 45 and 60 minutes after intraperitoneal administration of the test compound. Positive analgesic response was determined in cases where increase in the minimum voltage was observed. ED50 was calculated according to Weil's method. The acute toxicity values (LD50) of the […] were determined in the following manner: […]

[4] = Acute toxicity (LD50), mortality observed for 168 hours; details: mouse, in vivo, ip
Protocol: Bipolar electrode was placed on the tail root of mouse. The mouse was stimulated with a square wave (5 m sec, 1 Hz), and the minimum voltage of squeak response was measured at 5, 10, 15, 30, 45 and 60 minutes after intraperitoneal administration of the test compound. Positive analgesic response was determined in cases where increase in the minimum voltage was observed. ED50 was calculated according to Weil's method. The acute toxicity values (LD50) of the 2-aminoethyl-5-phenyloxazoles were determined in the following manner:
LD50 was calculated according to Weil's method.

[5] = mice, mortality for 168 hours, Weil's method

Row | Structure (SMILES) | inhibition in vivo at 25 mg/kg [1] [%] | inhibition in vivo at 50 mg/kg [1] [%] | inhibition in vivo at 100 mg/kg [1] [%] | ED50 [2] [mg/kg] | ED50 [3] [mg/kg] | LD50 at 168 h ([4]; read-out: LD50 in Mice) [mg/kg] | inhibition in vivo at 12.5 mg/kg [1] [%] | LD50 at 168 h [4, 5] [mg/kg]
1 | CNCc1ncc(-c2ccccc2)o1 | 5 | 40 | 48 | 10.1 | 32 | 238 | – | –
2 | CCNCc1ncc(-c2ccc(Cl)cc2)o1 | 43 | 65 | 60 | 1.9 | 35 | 283 | 16 | –
3 | CN(C)Cc1ncc(-c2ccc(Cl)cc2)o1 | – | – | 7 | 78 | 77 | 336 | – | –
4 | CNCc1ncc(-c2ccc(Cl)cc2)o1 | – | – | 17 | 22 | 46 | 141 | – | –
5 | NCc1ncc(-c2ccc(Cl)cc2)o1 | 25 | 29 | 65 | 6 | 50 | 476 | – | –
6 | CCNCc1ncc(-c2ccccc2)o1 | – | 23 | 47 | – | 21.4 | 141 | – | –
7 | CNCc1ncc(-c2ccc(F)cc2)o1 | – | 38 | 55 | – | – | – | – | 141
8 | NCc1ncc(-c2ccccc2Cl)o1 | 28 | 58 | 42 | – | – | – | – | 283
9 | CNCc1ncc(-c2cccc(Cl)c2)o1 | – | – | 21 | – | – | – | – | 283
10 | CNCc1ncc(-c2ccccc2Cl)o1 | – | – | 14 | – | – | – | – | 141
11 | CCNCc1ncc(-c2ccccc2Cl)o1 | – | – | 14 | – | 54 | 141 | – | –
12 | CCNCc1ncc(-c2ccc(Br)cc2)o1 | – | – | 22 | – | – | – | – | 168
13 | CCNCc1ncc(-c2ccc(Cl)c(Cl)c2)o1 | 27 | 56 | 68 | – | – | – | – | 141
14 | CCCNCc1ncc(-c2ccc(Cl)cc2)o1 | – | 24 | 38 | – | 47 | 566 | – | –
15 | CCCNCc1ncc(-c2cccc(Cl)c2)o1 | – | 4 | 32 | – | – | – | – | 283
16 | CCCNCc1ncc(-c2ccc(F)cc2)o1 | – | 45 | 53 | – | 54 | 238 | – | –
17 | CCN(CC)Cc1ncc(-c2ccc(Cl)cc2)o1 | – | 24 | 44 | – | – | – | – | 238
18 | OCCN1CCN(Cc2ncc(-c3ccc(Cl)c(Cl)c3)o2)CC1 | – | – | 14 | – | – | – | – | 141
19 | OCCN1CCN(Cc2ncc(-c3ccccc3)o2)CC1 | – | – | 6 | – | – | – | – | 283
20 | OCCN1CCN(Cc2ncc(-c3ccc(F)cc3)o2)CC1 | – | 8 | 54 | – | – | – | – | 336
21 | OCCN1CCN(Cc2ncc(-c3ccc(Cl)cc3)o2)CC1 | 27 | 57 | 50 | 16 | 30.8 | 283 | 6 | –
22 | Cc1c(N(C)C)c(=O)n(-c2ccccc2)n1C [Aminopyrine, reference compound] | 23 | 47 | 65 | 37 | 96 | – | 9 | 270
